Data set [1] can be described thus: Human plasma half-life assay (LC-MS). The format is in vitro ADME. The settings on record: incubated at 37° C., read-out: Human Plasma T½ (converted). On the procedure: (§1) B. Human and Rat Plasma Half-Life Assay
(§2) 50 μl, was removed at various times, like at 0, 1, 2, 3, 4, 8, 24, 32, 48, 56, 72 hours, mixed with 5 μL formic acid and 150 μL acetonitrile in a microcentrifuge tube, vertexed, and centrifuged for 10 minutes at 10K rpm. The supernatant was transferred to an injection vial and analyzed by LC-MS. The LC-MS system consisted of an API4000 mass spectrometer with an ESI probe. Positive ion mode and full scan detection were used. HPLC separation was carried out on a Luna 3μ C8 (2), 2×30 mm column with a gradient from 90% A to 90% B in 10 minutes at a flow rate of 0.3 ml/min. Buffer A was 1% formic acid in water and buffer B was 1% formic acid acetonitrile.

A short description of data set [2]: Rat plasma half-life assay (LC-MS). The format is in vitro ADME. The settings on record: incubated at 37° C., read-out: Rat Plasma T½ (converted). How it is done:
as §1, §2

The structures appear in SMILES notation. Where a SMILES comes first, the peptide text is derived from it. [ ]: non-standard residue; d: D form. The star is where a group is joined. Ac6c = NC1(C(=O)O)CCCCC1; X1 = CCCN1C(=O)CC(*)C1=O

As for `CC[C@H](C)[C@H](NC(=O)[C@H](CO)NC(=O)[C@H](Cc1ccc(O)cc1)NC(=O)[C@H](CC(=O)O)NC(=O)[C@H](CO)NC(=O)C1(NC(C)=O)CCCCC1)C(=O)N[C@@H](C)C(=O)N[C@@H](CCSC)C(=O)N[C@@H](CC(=O)O)C(=O)N[C@@H](CCCCN)C(=O)N[C@H](C(=O)N[C@@H](Cc1c[nH]cn1)C(=O)N[C@@H](CCC(N)=O)C(=O)N[C@@H](CCC(N)=O)C(=O)N[C@@H](CC(=O)O)C(=O)N[C@@H](Cc1ccccc1)C(=O)N[C@H](C(=O)N[C@@H](CC(N)=O)C(=O)N[C@@H](Cc1c[nH]c2ccccc12)C(=O)N[C@@H](CC(C)C)C(=O)N[C@@H](CC(C)C)C(=O)N[C@@H](C)C(=O)N[C@@H](CCC(N)=O)C(=O)N[C@@H](CCCCN)C(=O)NCC(=O)N[C@@H](CCCCN)C(=O)N[C@@H](CCCCN)C(=O)N[C@@H](CC(N)=O)C(=O)N[C@@H](CC(=O)O)C(=O)N[C@@H](Cc1c[nH]c2ccccc12)C(=O)N[C@@H](CCCCN)C(=O)N[C@@H](Cc1c[nH]cn1)C(=O)N[C@@H](CC(N)=O)C(=O)N[C@H](C(=O)N[C@H](C(=O)N[C@@H](CCC(N)=O)C(=O)O)[C@@H](C)O)[C@@H](C)CC)C(C)C)[C@@H](C)CC` [Example 1, (Ac-A6c^7)hGIP(7-42)-OH], the half-life at 0.1 mg/ml in data set [1] is above 72 h; in data set [2] it was 11 h.

For the molecule `CCCN1C(=O)CC(SC[C@H](NC(=O)[C@H](CC(N)=O)NC(=O)[C@H](Cc2c[nH]cn2)NC(=O)[C@H](CCCCN)NC(=O)[C@H](Cc2c[nH]c3ccccc23)NC(=O)[C@H](CC(=O)O)NC(=O)[C@H](CC(N)=O)NC(=O)[C@H](CCCCN)NC(=O)[C@H](CCCCN)NC(=O)CNC(=O)[C@H](CCCCN)NC(=O)[C@H](CCC(N)=O)NC(=O)[C@H](C)NC(=O)[C@H](CC(C)C)NC(=O)[C@H](CC(C)C)NC(=O)[C@H](Cc2c[nH]c3ccccc23)NC(=O)[C@H](CC(N)=O)NC(=O)[C@@H](NC(=O)[C@H](Cc2ccccc2)NC(=O)[C@H](CC(=O)O)NC(=O)[C@H](CCC(N)=O)NC(=O)[C@H](CCC(N)=O)NC(=O)[C@H](Cc2c[nH]cn2)NC(=O)[C@@H](NC(=O)[C@H](CCCCN)NC(=O)[C@H](CC(=O)O)NC(=O)[C@H](CCSC)NC(=O)[C@H](C)NC(=O)[C@@H](NC(=O)[C@H](CO)NC(=O)[C@H](Cc2ccc(O)cc2)NC(=O)[C@H](CC(=O)O)NC(=O)[C@H](CO)NC(=O)C2(NC(C)=O)CCCCC2)[C@@H](C)CC)[C@@H](C)CC)C(C)C)C(=O)N[C@H](C(=O)N[C@@H](CCC(N)=O)C(=O)O)[C@@H](C)O)C1=O` (some centres unmarked) [Example 2, [Ac-A6c^7, Cys(Psu)^40]hGIP(7-42)-OH] (Ac-[Ac6c]SDYSIAMDKIHQQDFVNWLLAQKGKKNDWKHNC(X1)TQ-OH), the half-life at 0.1 mg/mL in data set [1] is 13.7 h; in data set [2], 7.2 h.

As for `CCCN1C(=O)CC(SC[C@H](NC(=O)[C@H](Cc2c[nH]cn2)NC(=O)[C@H](CCCCN)NC(=O)[C@H](Cc2c[nH]c3ccccc23)NC(=O)[C@H](CC(=O)O)NC(=O)[C@H](CC(N)=O)NC(=O)[C@H](CCCCN)NC(=O)[C@H](CCCCN)NC(=O)CNC(=O)[C@H](CCCCN)NC(=O)[C@H](CCC(N)=O)NC(=O)[C@H](C)NC(=O)[C@H](CC(C)C)NC(=O)[C@H](CC(C)C)NC(=O)[C@H](Cc2c[nH]c3ccccc23)NC(=O)[C@H](CC(N)=O)NC(=O)[C@@H](NC(=O)[C@H](Cc2ccccc2)NC(=O)[C@H](CC(=O)O)NC(=O)[C@H](CCC(N)=O)NC(=O)[C@H](CCC(N)=O)NC(=O)[C@H](Cc2c[nH]cn2)NC(=O)[C@@H](NC(=O)[C@H](CCCCN)NC(=O)[C@H](CC(=O)O)NC(=O)[C@H](CCSC)NC(=O)[C@H](C)NC(=O)[C@@H](NC(=O)[C@H](CO)NC(=O)[C@H](Cc2ccc(O)cc2)NC(=O)[C@H](CC(=O)O)NC(=O)[C@H](CO)NC(=O)C2(NC(C)=O)CCCCC2)[C@@H](C)CC)[C@@H](C)CC)C(C)C)C(=O)N[C@H](C(=O)N[C@H](C(=O)N[C@@H](CCC(N)=O)C(=O)O)[C@@H](C)O)[C@@H](C)CC)C1=O` (some centres unmarked) [Example 3, [Ac-A6c^7, Cys(Psu)^39]hGIP(7-42)-OH] (Ac-[Ac6c]SDYSIAMDKIHQQDFVNWLLAQKGKKNDWKHC(X1)ITQ-OH), the half-life at 0.1 mg/mL is 16.4 h in data set [1] and 5.6 h in data set [2].

As to `CCCN1C(=O)CC(SC[C@H](NC(=O)[C@H](CCCCN)NC(=O)[C@H](Cc2c[nH]c3ccccc23)NC(=O)[C@H](CC(=O)O)NC(=O)[C@H](CC(N)=O)NC(=O)[C@H](CCCCN)NC(=O)[C@H](CCCCN)NC(=O)CNC(=O)[C@H](CCCCN)NC(=O)[C@H](CCC(N)=O)NC(=O)[C@H](C)NC(=O)[C@H](CC(C)C)NC(=O)[C@H](CC(C)C)NC(=O)[C@H](Cc2c[nH]c3ccccc23)NC(=O)[C@H](CC(N)=O)NC(=O)[C@@H](NC(=O)[C@H](Cc2ccccc2)NC(=O)[C@H](CC(=O)O)NC(=O)[C@H](CCC(N)=O)NC(=O)[C@H](CCC(N)=O)NC(=O)[C@H](Cc2c[nH]cn2)NC(=O)[C@@H](NC(=O)[C@H](CCCCN)NC(=O)[C@H](CC(=O)O)NC(=O)[C@H](CCSC)NC(=O)[C@H](C)NC(=O)[C@@H](NC(=O)[C@H](CO)NC(=O)[C@H](Cc2ccc(O)cc2)NC(=O)[C@H](CC(=O)O)NC(=O)[C@H](CO)NC(=O)C2(NC(C)=O)CCCCC2)[C@@H](C)CC)[C@@H](C)CC)C(C)C)C(=O)N[C@@H](CC(N)=O)C(=O)N[C@H](C(=O)N[C@H](C(=O)N[C@@H](CCC(N)=O)C(=O)O)[C@@H](C)O)[C@@H](C)CC)C1=O` (some centres unmarked) [Example 4, [Ac-A6c^7, Cys(Psu)^38]hGIP(7-42)-OH] (Ac-[Ac6c]SDYSIAMDKIHQQDFVNWLLAQKGKKNDWKC(X1)NITQ-OH), the values for the half-life at 0.1 mg/mL in data set [1] and in data set [2] were 10 h and 6 h, respectively.

`CCCN1C(=O)CC(SC[C@H](NC(=O)[C@H](CC(=O)O)NC(=O)[C@H](CC(N)=O)NC(=O)[C@H](CCCCN)NC(=O)[C@H](CCCCN)NC(=O)CNC(=O)[C@H](CCCCN)NC(=O)[C@H](CCC(N)=O)NC(=O)[C@H](C)NC(=O)[C@H](CC(C)C)NC(=O)[C@H](CC(C)C)NC(=O)[C@H](Cc2c[nH]c3ccccc23)NC(=O)[C@H](CC(N)=O)NC(=O)[C@@H](NC(=O)[C@H](Cc2ccccc2)NC(=O)[C@H](CC(=O)O)NC(=O)[C@H](CCC(N)=O)NC(=O)[C@H](CCC(N)=O)NC(=O)[C@H](Cc2c[nH]cn2)NC(=O)[C@@H](NC(=O)[C@H](CCCCN)NC(=O)[C@H](CC(=O)O)NC(=O)[C@H](CCSC)NC(=O)[C@H](C)NC(=O)[C@@H](NC(=O)[C@H](CO)NC(=O)[C@H](Cc2ccc(O)cc2)NC(=O)[C@H](CC(=O)O)NC(=O)[C@H](CO)NC(=O)C2(NC(C)=O)CCCCC2)[C@@H](C)CC)[C@@H](C)CC)C(C)C)C(=O)N[C@@H](CCCCN)C(=O)N[C@@H](Cc2c[nH]cn2)C(=O)N[C@@H](CC(N)=O)C(=O)N[C@H](C(=O)N[C@H](C(=O)N[C@@H](CCC(N)=O)C(=O)O)[C@@H](C)O)[C@@H](C)CC)C1=O` (some centres unmarked) [Example 5, [Ac-A6c^7, Cys(Psu)^36]hGIP(7-42)-OH] (Ac-[Ac6c]SDYSIAMDKIHQQDFVNWLLAQKGKKNDC(X1)KHNITQ-OH): the half-life at 0.1 mg/mL was 7.8 h in data set [1] and 8.5 h in data set [2].

For the molecule `CCCN1C(=O)CC(SC[C@H](NC(=O)[C@H](CC(N)=O)NC(=O)[C@H](CCCCN)NC(=O)[C@H](CCCCN)NC(=O)CNC(=O)[C@H](CCCCN)NC(=O)[C@H](CCC(N)=O)NC(=O)[C@H](C)NC(=O)[C@H](CC(C)C)NC(=O)[C@H](CC(C)C)NC(=O)[C@H](Cc2c[nH]c3ccccc23)NC(=O)[C@H](CC(N)=O)NC(=O)[C@@H](NC(=O)[C@H](Cc2ccccc2)NC(=O)[C@H](CC(=O)O)NC(=O)[C@H](CCC(N)=O)NC(=O)[C@H](CCC(N)=O)NC(=O)[C@H](Cc2c[nH]cn2)NC(=O)[C@@H](NC(=O)[C@H](CCCCN)NC(=O)[C@H](CC(=O)O)NC(=O)[C@H](CCSC)NC(=O)[C@H](C)NC(=O)[C@@H](NC(=O)[C@H](CO)NC(=O)[C@H](Cc2ccc(O)cc2)NC(=O)[C@H](CC(=O)O)NC(=O)[C@H](CO)NC(=O)C2(NC(C)=O)CCCCC2)[C@@H](C)CC)[C@@H](C)CC)C(C)C)C(=O)N[C@@H](Cc2c[nH]c3ccccc23)C(=O)N[C@@H](CCCCN)C(=O)N[C@@H](Cc2c[nH]cn2)C(=O)N[C@@H](CC(N)=O)C(=O)N[C@H](C(=O)N[C@H](C(=O)N[C@@H](CCC(N)=O)C(=O)O)[C@@H](C)O)[C@@H](C)CC)C1=O` (some centres unmarked) [Example 6, [Ac-A6c^7, Cys(Psu)^35]hGIP(7-42)-OH] (Ac-[Ac6c]SDYSIAMDKIHQQDFVNWLLAQKGKKNC(X1)WKHNITQ-OH), the half-life at 0.1 mg/mL in data set [1] is 8 h; in data set [2] it was 3.2 h.

With `CCCN1C(=O)CC(SC[C@H](NC(=O)[C@H](CCCCN)NC(=O)[C@H](CCCCN)NC(=O)CNC(=O)[C@H](CCCCN)NC(=O)[C@H](CCC(N)=O)NC(=O)[C@H](C)NC(=O)[C@H](CC(C)C)NC(=O)[C@H](CC(C)C)NC(=O)[C@H](Cc2c[nH]c3ccccc23)NC(=O)[C@H](CC(N)=O)NC(=O)[C@@H](NC(=O)[C@H](Cc2ccccc2)NC(=O)[C@H](CC(=O)O)NC(=O)[C@H](CCC(N)=O)NC(=O)[C@H](CCC(N)=O)NC(=O)[C@H](Cc2c[nH]cn2)NC(=O)[C@@H](NC(=O)[C@H](CCCCN)NC(=O)[C@H](CC(=O)O)NC(=O)[C@H](CCSC)NC(=O)[C@H](C)NC(=O)[C@@H](NC(=O)[C@H](CO)NC(=O)[C@H](Cc2ccc(O)cc2)NC(=O)[C@H](CC(=O)O)NC(=O)[C@H](CO)NC(=O)C2(NC(C)=O)CCCCC2)[C@@H](C)CC)[C@@H](C)CC)C(C)C)C(=O)N[C@@H](CC(=O)O)C(=O)N[C@@H](Cc2c[nH]c3ccccc23)C(=O)N[C@@H](CCCCN)C(=O)N[C@@H](Cc2c[nH]cn2)C(=O)N[C@@H](CC(N)=O)C(=O)N[C@H](C(=O)N[C@H](C(=O)N[C@@H](CCC(N)=O)C(=O)O)[C@@H](C)O)[C@@H](C)CC)C1=O` (some centres unmarked) [Example 7, [Ac-A6c^7, Cys(Psu)^34]hGIP(7-42)-OH] (Ac-[Ac6c]SDYSIAMDKIHQQDFVNWLLAQKGKKC(X1)DWKHNITQ-OH), the half-life at 0.1 mg/mL in data set [1] was 7.9 h; in data set [2], 1.6 h.

The values are drawn from patent US8450266B2 (Ipsen Pharma S.A.S., priority 2008, dated 2013).
